Experimental data: article PMC6145916, “Interaction of mitochondrial fission factor with dynamin related protein 1 governs physiological mitochondrial function in vivo” (Scientific Reports, 2018)
Where no end group is shown, it is not given here.

How the values were obtained:
[1] = system: E17 primary cortical neurons; assay: Mitochondrial morphology (Tom20), primary cortical neurons; assay type: cell-based, rat; details: 1 µM P259, two-hour treatment; n = 3, 10 images each
Description: Bottom, quantification of the form factor (degree of branching) and aspect ratio (major/minor axis length). At least 10,000 mitochondrial fragments were analyzed for each condition. Mitochondrial reactive oxygen species production (MitoSox Red) (b) and membrane potential (TMRM) (c) after overnight treatment with indicated concentrations of peptide (n = 3, with 3 replicates). […] Overlay of live microscopy imaging at time 0 (green) and 150 (red) seconds. […] An estimation of the % mobile mitochondria from the Pearson coefficient of each set of images. Data are mean ± s.e.
Human neuroblastoma SH-SY5Y cells purchased from ATCC were cultured in a 50/50 mixture of […]
using SH-SY5Y cells were carried out in the same growth medium with the exception of using […]
Wild-type and MFF knockout mouse embryonic fibroblast (MEF) cells were generously provided by Professor David Chan. […]
an NCBI protein blast of the P259 sequence ([…]) was performed across the human genome database and the top 75 gene query hits were recorded.7 The orthologs of each available gene were obtained from the Ensembl database.8 Of the resulting 75 human gene hits, 37 had […]
The effect of peptides on GTPase activity of Drp1 was measured by incubating recombinant Drp1 […]
for 1 hour at 37 °C. GTPase activity was measured using a colorimetric GTPase assay kit (Novus Biologicals, CO, USA) as instructed by the manufacturer. […]

[2] = system: Wild-type MEF cells; details: 4 µM P259, 15 minutes, mito-dendra2 photoconversion; 9 movies over two independent experiments
[3] = system: neuroblastoma SH-SY5Y cells; assay: Mitochondrial morphology (Tom20 immunofluorescence), SH-SY5Y; assay type: cell-based, human
Description: Represented Western blot is cropped from a full blot shown in the Expanded Western Blots section of the Supplementary Information. […] Hoechst 33342 is shown in blue and Tom20 in green (n = 3, 10 images each). Below, quantification of the form factor (degree of branching) and major axis length (length of mitochondria). At least 6,000 mitochondrial fragments were measured for each condition. Mitochondrial reactive oxygen species (ROS) production (MitoSox Red) (c) and mitochondrial membrane potential (TMRM) (d) after overnight treatment with indicated concentrations of peptide or FCCP. Data are from 3 independent experiments per condition normalized to the average no peptide value. (e) Relative mitochondrial ROS (MitoSox Red) signal in GFP positive cells expressing full-length or alanine-substituted P259 at indicated amino acids after two days of transfection. Values are normalized to a GFP empty vector (n = 3, with 3 replicates). […] Data are mean ± s.e. […]
Cells were fixed onto Permanox plastic slides with 4% paraformaldehyde in PBS for 10 minutes at room temperature. Cells were permeabilized in 0.1% Triton X-100 and 1% normal goat serum (blocking buffer) for one hour at room temperature. Permeabilized cells were incubated overnight with primary anti-Tom20 antibody (Santa Cruze Biotech, sc-11415, 1:250 dilution) in a humidified chamber. Slides were subsequently incubated with FITC-conjugated goat anti-rabbit IgG for two hours at room temperature in a light-shielding humidified chamber. Cells were washed with blocking buffer and stained with Hoechst 33342 (Invitrogen, OR, USA, […]). Coverslips were mounted with a Slowfade antifade solution (Invitrogen, OR, USA). Images were acquired using an LSM 700 confocal laser-s canning microsc ope equipped with a Plan Apochromat 63x/1.4 NA oil-immersion objective (Zeiss).
Mitochondrial morphology analysis
High-throughput image analysis of mitochondrial morphology was performed using MATLAB with the Image Processing toolkit. Background illumination, obtained by morphological opening of the image, was subtracted from the original image. The image was then passed through a top - hat transformation to highlight objects from the background followed by a pixel-wis e adaptive low-pas s Wiener filter to remove noise. A 90th percentile threshold was used to convert the image to a binary image. Erroneously large and small objects were removed from the image and morphological features were extracted from the binary objects. Major axis length is defined as th e length of the longest line that can be drawn through a binary object while the minor axis length is defined as the length of the shortest line. The aspect ratio is defined by the major axis length divided by the minor axis length. […]

[4] = 4 µM TAT-P259, 30-minute treatment, vs TAT, n = 3

In the case of “YGRKKRRQRRRGSGIIQLPEIVVV-NH2 (C-terminus assumed) [P259]”, the mitochondrial morphology [1] is reported as “more elongated and branched mitochondria”, the “rate of mitochondrial fusion” value [2] is reported as “did not increase the rate of mitochondrial fusion” and the “form factor (degree of branching)” value [3, 4] is reported as “higher form factors”. For the same substance, the major axis length [3, 4] was “increased major axis lengths” and the mitochondrial morphology ([3]; 4 µM TAT-P259 or 10 µM Mdivi-1, 30-minute treatment, n = 3, 10 images each) was “more elongated and branched mitochondria”.
